Source: patent US6774235B2, “Trisubstituted 1,3,5-triazine derivatives” (Janssen Pharmaceutica N.V., priority 1998, dated 2004)
Read-outs that look alike come from different tables or passages of the source.

Tests used:
[1] = Cytotoxicity in mock-infected MT-4 cells (MTT); settings: human, mock-infected MT-4 cells
Protocol: (§1) A rapid, sensitive and automated assay procedure was used for the in vitro evaluation of anti-HIV agents. An HIV-1 (wildtype IIIB) transformed T4-cell line, MT-4, which was previously shown (Koyanagi et al., Int. J Cancer, 36, 445-451, 1985) to be highly susceptible to and permissive for HIV infection, served as the target cell line. Inhibition of the HIV-induced cytopathic effect was used as the end point. […] The percent protection achieved by the compound in HIV-infected cells was calculated by the following formula: [formula]
(§2) whereby (ODT)HIV is the optical density measured with a given concentration of the test compound in HIV-infected cells; (ODC)HIV is the optical density measured for the control untreated HIV-infected cells; (ODC)MOCK is the optical density measured for the control untreated mock-infected cells; all optical density values were determined at 540 nm. […] The ratio of CC50 to IC50 was defined as the selectivity index (SI).

[2] = test system: HIV-1 (wildtype IIIB); test: microbe, parasite or virus in culture; type: cell-based; settings: dose achieving 50% protection of HIV-1 (IIIB) infected MT-4 cells, MTT, OD 540 nm
Protocol: as §1, §2

[3] = test system: MT-4; test: Cytotoxicity in mock-infected MT-4 cells (MTT)
Protocol: as §1, §2

[4] = concentration reducing absorbance of mock-infected MT-4 control by 50%, MTT

Structure (SMILES)	CC50 [1] [µM]	IC50 ([2]; Human immunodeficiency virus 1, MT4) [µM]	CC50 [3] [µM]	IC50 [2] [µM]	CC50 [3, 4] [µM]
N#Cc1ccc(Nc2nc(NO)nc(Nc3c(Cl)cc(Cl)cc3Cl)n2)cc1 [Compound 23, 4-[[4-(hydroxyamino)-6-[(2,4,6-trichlorophenyl)amino]-1,3,5-triazin-2-yl]amino]-benzonitrile]	7.6	0.001	–	–	–
N#Cc1ccc(Nc2nc(N)nc(Nc3c(Cl)cc(Cl)cc3Cl)n2)cc1 [Compound 18]	–	–	45.6	0.008	–
CC(=O)c1cc(F)cc(F)c1Oc1nc(N)nc(Nc2ccc(C#N)cc2)n1 [Compound 49]	–	–	> 99.9	0.076	–
CCc1cccc(CC)c1Nc1nc(N)nc(Nc2ccc(C#N)cc2)n1 [Compound 12]	–	–	30	0.021	–
N#Cc1ccc(Nc2nc(N)nc(Nc3c(Br)cc(Br)cc3Br)n2)cc1 [Compound 72]	–	–	6.5	0.002	–
N#Cc1ccc(Nc2nc(N)nc(Oc3c(Cl)c(Cl)c(Cl)c(Cl)c3Cl)n2)cc1 [Compound 42]	–	–	> 10	0.033	–
Cc1c(Cl)cc(N)c(Oc2nc(N)nc(Nc3ccc(C#N)cc3)n2)c1Cl [Compound 81]	–	–	> 99.1	2.68	–
Cc1cc(I)cc(C)c1Oc1nc(N)nc(Nc2ccc(C#N)cc2)n1 [Compound 60]	–	–	45.5	0.003	–
Cc1cccc(C)c1Nc1nc(NO)nc(Nc2ccc(C#N)cc2)n1 [Compound 5]	–	–	7.8	0.002	–
N#Cc1ccc(Nc2nc(N)nc(Oc3c(Cl)cc(Cl)cc3Cl)n2)cc1 [Compound 30]	–	–	63.5	0.002	–
CCc1cc(Br)cc(CC)c1Nc1nc(N)nc(Nc2ccc(C#N)cc2)n1 [Compound 64]	–	–	46.5	0.014	–
COc1cccc(OC)c1Oc1nc(N)nc(Nc2ccc(C#N)cc2)n1 [Compound 46]	–	–	> 100	0.031	–
N#Cc1ccc(Nc2nc(N)nc(Oc3c(Cl)ccc(Cl)c3Cl)n2)cc1 [Compound 43]	–	–	43.9	0.009	–
N#Cc1ccc(Nc2nc(N)nc(Sc3ccc(F)cc3Cl)n2)cc1 [Compound 55]	–	–	> 99.9	0.004	–
N#Cc1ccc(Nc2nc(NO)nc(Nc3c(Cl)cccc3Cl)n2)cc1 [Compound 4, 4-[[[6-(2,6-dichlorophenylamino)-4-(hydroxylamino)]-1,3,5-triazin-2-yl]amino]-benzonitrile]	–	–	8	0.002	–
N#Cc1ccc(Nc2nc(NO)nc(Sc3c(Cl)cccc3Cl)n2)cc1 [Compound 20]	–	–	11.7	0.003	–
N#Cc1ccc(Nc2nc(N)nc(Oc3ccc(Cl)cc3Cl)n2)cc1 [Compound 38]	–	–	> 100	0.007	–
COc1cc(OC)c(Nc2nc(N)nc(Nc3ccc(C#N)cc3)n2)c(OC)c1 [Compound 68]	–	–	63.9	0.015	–
N#Cc1ccc(Nc2nc(N)nc(NNc3c(Cl)cc(Cl)cc3Cl)n2)cc1 [Compound 21]	–	–	27.8	0.001	–
N#Cc1ccc(Nc2nc(N)nc(Nc3c(Cl)cccc3Cl)n2)cc1 [Compound 10]	–	–	6.1	0.003	–
COc1cc(C#N)ccc1Oc1nc(N)nc(Nc2ccc(C#N)cc2)n1 [Compound 47]	–	–	> 100	0.075	–
CC(=O)c1cc(Cl)cc(Cl)c1Oc1nc(N)nc(Nc2ccc(C#N)cc2)n1 [Compound 39]	–	–	< 10	> 10	–
N#Cc1ccc(Nc2nc(N)nc(Sc3ccc(F)cc3F)n2)cc1 [Compound 57]	–	–	> 100	0.015	–
Cc1cc(C)c(Nc2nc(N)nc(Nc3ccc(C#N)cc3)n2)c(C)c1N [Compound 61]	–	–	94.6	0.005	–
Cc1cc(Br)c(Nc2nc(Nc3ccc(C#N)cc3)nc(Nc3ccc(C#N)cc3)n2)c(Br)c1 [Compound 74, N,-[6-[(2,6-dibromo-4-methylphenyl)amino]-1,3,5-triazine-2,4-diyl]bis[4-amino-benzonitrile]]	–	–	7	0.19	–
Cc1cc(C)c(Nc2nc(N)nc(Nc3ccc(C#N)cc3)n2)c(C)c1Br [Compound 15]	–	–	1.7	0.003	–

Structure (SMILES)	CC50 [1] [µM]	IC50 ([2]; Human immunodeficiency virus 1, MT4) [µM]	CC50 [3] [µM]	IC50 [2] [µM]	CC50 [3, 4] [µM]
COC(=O)c1cc(OC)c(OC)c(OC)c1Nc1nc(N)nc(Nc2ccc(C#N)cc2)n1 [Compound 82]	–	–	99.6	1.49	–
N#Cc1ccc(Nc2nc(N)nc(Oc3c(Cl)cc(F)cc3Cl)n2)cc1 [Compound 45]	–	–	52.9	0.007	–
Cc1cc(C)c(N=Nc2nc(N)nc(Nc3ccc(C#N)cc3)n2)c(C)c1 [Compound 69, 4-[[4-amino-6-[(2,4,6-trimethylphenyl)azo]-1,3,5-triazin-2-yl]aamino]benzonitrile]	–	–	–	0.065	> 99.9
N#Cc1ccc(Nc2nc(N)nc(Oc3c(F)c(F)c(O)c(F)c3F)n2)cc1 [Compound 80]	–	–	–	85.5	> 85.5
Cc1ccc(Cl)c(C)c1Nc1nc(NO)nc(Nc2ccc(C#N)cc2)n1 [Compound 31]	–	–	9.9	0.005	–
CC(C)c1cc(Br)c(Nc2nc(Nc3ccc(C#N)cc3)nc(Nc3ccc(C#N)cc3)n2)c(Br)c1 [Compound 75]	–	–	37.8	0.378	–
N#Cc1ccc(Nc2nc(N)nc(NNc3c(Cl)cccc3Cl)n2)cc1 [Compound 22]	–	–	> 100	0.003	–
Cc1cc(Cl)c(C)c(C)c1Oc1nc(N)nc(Nc2ccc(C#N)cc2)n1 [Compound 52]	–	–	1.9	0.003	–
Cc1c(C)c(Oc2nc(N)nc(Nc3ccc(C#N)cc3)n2)c(Cl)c(C)c1Cl [Compound 53]	–	–	2.5	0.017	–
Cc1cc(C)c(Sc2nc(N)nc(Nc3ccc(C#N)cc3)n2)c(C)c1 [Compound 58]	–	–	47.1	0.003	–
N#Cc1ccc(Nc2nc(N)nc(Nc3c(F)c(F)c(F)c(F)c3F)n2)cc1 [Compound 67]	–	–	45.6	0.111	–
Cc1cc(Cl)cc(Cl)c1Oc1nc(N)nc(Nc2ccc(C#N)cc2)n1 [Compound 34]	–	–	4.8	0.001	–
Cc1ccc(Sc2nc(N)nc(Nc3ccc(C#N)cc3)n2)c(C)c1 [Compound 59]	–	–	48.5	0.002	–
Cc1cc(Nc2nc(N)nc(Nc3ccc(C#N)cc3)n2)c(Cl)cc1F [Compound 66]	–	–	> 99.9	0.096	–
N#Cc1ccc(Nc2nc(N)nc(Sc3cc(Cl)c(Cl)cc3Cl)n2)cc1 [Compound 56]	–	–	62.6	0.005	–
Cc1cc(N)cc(C)c1Oc1nc(N)nc(Nc2ccc(C#N)cc2)n1 [Compound 78]	–	–	47	7.83	–
Cc1ccc(Oc2nc(N)nc(Nc3ccc(C#N)cc3)n2)c(C)c1 [Compound 62]	–	–	51.6	0.003	–
N#Cc1ccc(Nc2nc(N)nc(Oc3c(F)cc(F)cc3F)n2)cc1 [Compound 44]	–	–	> 100	0.005	–
Cc1cccc(C(C)C)c1Nc1nc(N)nc(Nc2ccc(C#N)cc2)n1 [Compound 8]	–	–	9.3	0.165	–
Cc1c(Br)c(C)c(Br)c(Oc2nc(N)nc(Nc3ccc(C#N)cc3)n2)c1Br [Compound 50]	–	–	8.1	0.059	–
Cc1ccc(Cl)c(C)c1Nc1nc(N)nc(Nc2ccc(C#N)cc2)n1 [Compound 28]	–	–	42.8	0.005	–
N#Cc1ccc(Nc2nc(N)nc(Nc3c(F)cc(F)cc3Br)n2)cc1 [Compound 17]	–	–	53.8	0.003	–
CC(=O)c1ccc(C)cc1Nc1nc(N)nc(Nc2ccc(C#N)cc2)n1 [Compound 13]	–	–	> 100	0.259	–
N#Cc1ccc(Nc2nc(N)nc(Nc3c(Cl)cc(C(F)(F)F)cc3Cl)n2)cc1 [Compound 70]	–	–	15.6	0.003	–
N#Cc1ccc(Nc2nc(N)nc(Oc3c(Cl)cccc3Cl)n2)cc1 [Compound 1]	–	–	> 20	0.003	–
Cc1c(Cl)c(C)c(Br)c(Oc2nc(N)nc(Nc3ccc(C#N)cc3)n2)c1Br [Compound 48]	–	–	8.7	0.019	–
